One block for each molecule: values may come before it.
Legend:
[1] = target: T1, 2,5-DKCMO (2,5-diketocamphane monooxygenase; 25DKCMO); assay: spectrophotometric titration at […] nm; assay type: binding, Pseudomonas putida; conditions: aerobic, Tris-HCl pH 7.6, 10 µM FMN
T1 construct: gene camE25-1; oxygenating subunit, native purification from camphor-grown cells; CAM plasmid-coded; homodimer; nine Trp per monomer

[2] = test system: T2, Frp2 (28.5 kDa ferric reductase); assay: initial rate of A340 decrease, Lineweaver-Burk; assay type: biochemical, Pseudomonas putida; conditions: anaerobic, DCPIP as terminal acceptor
T2 construct: native purification from camphor-grown cells; chromosome-coded

[3] = target: T3, 3,6-DKCMO (3,6-diketocamphane monooxygenase; 36DKCMO) (Pseudomonas putida, UniProt D7UER1); assay: spectrophotometric titration at […] nm; assay type: binding
T3 construct: gene camE36; oxygenating subunit, native purification from camphor-grown cells; CAM plasmid-coded; homodimer; five Trp per monomer
T3 sequence (D7UER1 1-378): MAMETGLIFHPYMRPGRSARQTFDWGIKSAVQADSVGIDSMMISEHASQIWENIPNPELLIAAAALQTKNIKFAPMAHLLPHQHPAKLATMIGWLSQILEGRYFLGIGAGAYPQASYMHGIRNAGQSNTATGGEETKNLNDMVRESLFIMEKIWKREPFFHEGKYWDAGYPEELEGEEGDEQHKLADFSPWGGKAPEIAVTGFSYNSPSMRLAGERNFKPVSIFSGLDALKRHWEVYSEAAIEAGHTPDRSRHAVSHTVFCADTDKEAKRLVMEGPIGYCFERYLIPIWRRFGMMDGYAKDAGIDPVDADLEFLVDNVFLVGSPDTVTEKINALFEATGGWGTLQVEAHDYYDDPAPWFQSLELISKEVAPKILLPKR

[4] = test system: T4, Frp1 (27.0 kDa ferric reductase); assay: initial rate of A340 decrease, Lineweaver-Burk; assay type: biochemical, Pseudomonas putida; conditions: anaerobic, DCPIP as terminal acceptor
T4 construct: native purification from camphor-grown cells; chromosome-coded

[5] = target: T3, 3,6-DKCMO (3,6-diketocamphane monooxygenase; 36DKCMO); assay: tryptophan fluorescence quenching titration (ex […] nm, em […] nm); assay type: binding
[6] = target: T1, 2,5-DKCMO (2,5-diketocamphane monooxygenase; 25DKCMO); assay: as above; assay type: binding, Pseudomonas putida; conditions: anaerobic, 60 mM Tris/HCl pH 7.6, 10 µM enzyme; FNR made by photoreduction with EDTA
[7] = substrate: Cc1cc2nc3c(=O)[nH]c(=O)nc-3n(C[C@H](O)[C@H](O)[C@H](O)COP(=O)(O)O)c2cc1C; assay: initial rate of A340 decrease, Lineweaver-Burk; assay type: biochemical, Pseudomonas putida; conditions: anaerobic, 60 mM Tris/HCl pH 7.6, NADH as donor, cytochrome c as terminal acceptor
[8] = substrate: NC(=O)C1=CN([C@@H]2O[C@H](COP(=O)(O)OP(=O)(O)OC[C@H]3O[C@@H](n4cnc5c(N)ncnc54)[C@H](O)[C@@H]3O)[C@@H](O)[C@H]2O)C=CC1; assay: initial rate of A340 decrease, Lineweaver-Burk; assay type: biochemical, Pseudomonas putida; conditions: anaerobic
[9] = 60 mM Tris/HCl pH 7.6, NADH as donor
[10] = 60 mM Tris/HCl pH 7.6, FMN as acceptor
[11] = 60 mM Tris/HCl pH 7.6, 10 µM putidaredoxin plus 30 µM cytochrome c as acceptor

Molecule: Cc1cc2nc3c(=O)[nH]c(=O)nc-3n(C[C@H](O)[C@H](O)[C@H](O)COP(=O)(O)O)c2cc1C [FMN]
- Kd [1]: 109 µM
- Km [2, 9]: 8.6 µM
- Kd [3]: 125 µM
- Km [4, 9]: 6.9 µM

Molecule: Cc1cc2nc3c(=O)[nH]c(=O)nc-3n(C[C@H](O)[C@H](O)[C@H](O)COP(=O)(O)OP(=O)(O)OC[C@H]3O[C@@H](n4cnc5c(N)ncnc54)[C@H](O)[C@@H]3O)c2cc1C [FAD]
- Km ([4]; 60 mM Tris/HCl pH 7.6, NADH as donor, kcat as printed although text calls FAD activity much lower): 68.8 µM

B1: Fred (Pseudomonas putida) (protein)
chain: TKVAAEIVRSAIDPQWFRAVLGQYPTGVCAVTAMDPDGKMSGMAVGSFTSVSLNPPLVAFLPDRSSTSWPKIERAGKFCVNVLSDQQLGVCKRFASKDEDKFSGLVYRLSDNGSPIIEGVVAWIDCDLHSVQEAGDHYIVIGSVRELQVESEDSALLFYRGGYGGFAAI
notes: native purification from camphor-grown cells; chromosome-coded; 36 kDa homodimer
- Km [7]: 4.2 µM
- kcat [7]: 294 s⁻¹
- Km ([8]; 60 mM Tris/HCl pH 7.6, FMN as acceptor, cytochrome c as terminal acceptor): 28 µM

B2: PdR (putidaredoxin reductase) (Pseudomonas putida) (protein)
chain: MNANDNVVIVGTGLAGVEVAFGLRASGWEGNIRLVGDATVIPHHLPPLSKAYLAGKATAESLYLRTPDAYAAQNIQLLGGTQVTAINRDRQQVILSDGRALDYDRLVLATGGRPRPLPVASGAVGKANNFRYLRTLEDAECIRRQLIADNRLVVIGGGYIGLEVAATAIKANMHVTLLDTAARVLERVTAPPVSAFYEHLHREAGVDIRTGTQVCGFEMSTDQQKVTAVLCEDGTRLPADLVIAGIGLIPNCELASAAGLQVDNGIVINEHMQTSDPLIMAVGDCARFHSQLYDRWVRIESVPNALEQARKIAAILCGKVPRDEAAPWFWSDQYEIGLKMVGLSEGYDRIIVRGSLAQPDFSVFYLQGDRVLAVDTVNRPVEFNQSKQIITDRLPVEPNLLGDESVPLKEIIAAAKAELSSA
notes: native purification from camphor-grown cells; FAD flavoprotein; CAM plasmid-coded
- Km [8, 11]: 5.9 µM
- kcat [8, 11]: 102 s⁻¹

Now from value to molecule:

- Km [2, 10]: 92 µM
Molecule: NC(=O)C1=CN([C@@H]2O[C@H](COP(=O)(O)OP(=O)(O)OC[C@H]3O[C@@H](n4cnc5c(N)ncnc54)[C@H](OP(=O)(O)O)[C@@H]3O)[C@@H](O)[C@H]2O)C=CC1 [NADPH]

- Kd [5]: 0.24 µM
- Kd [6]: 0.21 µM
Molecule: Cc1cc2c(cc1C)N(C[C@H](O)[C@H](O)[C@H](O)COP(=O)(O)O)c1[nH]c(=O)[nH]c(=O)c1N2 [FNR]

- Km [2, 10]: 36 µM
- Km [4, 10]: 23 µM
Molecule: NC(=O)C1=CN([C@@H]2O[C@H](COP(=O)(O)OP(=O)(O)OC[C@H]3O[C@@H](n4cnc5c(N)ncnc54)[C@H](O)[C@@H]3O)[C@@H](O)[C@H]2O)C=CC1 [NADH]
